Measured values reported in paper PMC11682119 (Scientific Reports, 2024).

Biological target: T1, hALDH2 (Homo sapiens, UniProt P05091)
T1 sequence (P05091 18-517): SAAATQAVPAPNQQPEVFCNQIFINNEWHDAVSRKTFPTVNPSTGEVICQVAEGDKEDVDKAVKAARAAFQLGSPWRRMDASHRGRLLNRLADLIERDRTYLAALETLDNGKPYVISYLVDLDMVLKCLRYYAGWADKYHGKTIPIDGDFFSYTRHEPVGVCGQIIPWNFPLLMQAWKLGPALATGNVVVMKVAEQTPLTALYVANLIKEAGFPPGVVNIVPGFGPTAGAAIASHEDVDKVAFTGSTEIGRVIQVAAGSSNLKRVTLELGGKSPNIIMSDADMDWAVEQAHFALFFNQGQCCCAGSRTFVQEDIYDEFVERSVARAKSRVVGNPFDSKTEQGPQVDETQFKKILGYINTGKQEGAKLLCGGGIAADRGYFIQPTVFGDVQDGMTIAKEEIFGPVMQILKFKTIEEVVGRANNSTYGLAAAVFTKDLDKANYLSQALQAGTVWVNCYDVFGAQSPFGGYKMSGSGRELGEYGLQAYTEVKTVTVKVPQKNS
Type: biochemical

Question: `CN(C)C(=S)SSC(=S)N(C)C` [thiram] was tested. Which IC50 did it give?
Answer: 1600 nM
